The results in this text go back to patent EP2669276A1 (Université de Strasbourg, priority 2012, dated 2013).

Experiment [1] has as its target T1, hNPFF1 (Homo sapiens, UniProt Q9GZQ6).
T1 construct: The cDNA encoding the full-length human NPFFR1 and human NPFFR2; expressed in transfected cells
The experiment is described as follows: Receptor binding assay with [3H]-FFRFamide on CHO cell membranes expressing SF-hNPFFR1. As to conditions: [3H]-FFRF-NH2 radioligand, mean of at least two experiments; for Ki: read-out: Ki NPFF1. An excerpt: (§1) The cDNA encoding the full-length human NPFFR1 and human NPFFR2 were subcloned into the pcDNA3 expression vector (Invitrogen, Cergy Pontoise, France) using standard molecular biology methods. A sequence encoding a signal sequence and a Flag epitope was fused to the 5' coding sequence of both hNPFFR1 and hNPFFR2 cDNA according to (Guan et al., 1992) resulting in a SF-hNPFFR1 and SF-hNPFFR2 constructs. These contructs were stably transfected into CHO cells.
(§2) Membranes from CHO cells stably expressing SF-hNPFFR1 or SF-hNPFFR2 were prepared as described (Becker et al., 1999). SF-hNPFFR1 or SF-hNPFFR2 membranes (10µg) were incubated for 30 min at 25 °C in a final volume of 0.5 ml containing 50 mM HEPES pH 7.4, 1 mM CaCl2, 1 mM MgCl2, 0.1% bovine serum albumin, 10 nM and 3 nM [^3H]-FFRFamide (CEA, Paris; specific activity, 13,6 Ci/mmol) for […], respectively and the ligands to be tested. Non-specific binding was determined in presence of 1 µM neuropeptide FF for SF-hNPFFR2 and 1 µM neuropeptide VF for SF -hNPFFR1. Typical total and nonspecific binding were 1200 and 200 dpm, respectively for SF-hNPFFR1 and SF-hNPFFR2. Incubation mixtures were rapidly filtered and washed with 50 mM HEPES pH 7.4, 1 mM CaCl2, 1 mM MgCl2, on 96 wells GF/B unifilter (Perkin Elmer). Unifilter plates where then dryied for 1hr at 65°C. Bound radioactivity was determined by scintillation counting with 30 µl of scintillation cocktail (O-scint, Perkin Elmer) per well on a Topcount scintillation apparatus (Perkin Elmer).

Experiment [2] addresses T2, hNPFF2 (Homo sapiens, UniProt Q9Y5X5).
T2 construct: The cDNA encoding the full-length human NPFFR1 and human NPFFR2; expressed in transfected cells
The experiment is described as follows: Receptor binding assay with [3H]-FFRFamide on CHO cell membranes expressing SF-hNPFFR2. As to conditions: [3H]-FFRF-NH2 radioligand, mean of at least two experiments; for Ki: read-out: Ki NPFF2.
Text: as §1, §2

SMILES strings stand for the structures.

T2 sequence (Q9Y5X5 whole entry): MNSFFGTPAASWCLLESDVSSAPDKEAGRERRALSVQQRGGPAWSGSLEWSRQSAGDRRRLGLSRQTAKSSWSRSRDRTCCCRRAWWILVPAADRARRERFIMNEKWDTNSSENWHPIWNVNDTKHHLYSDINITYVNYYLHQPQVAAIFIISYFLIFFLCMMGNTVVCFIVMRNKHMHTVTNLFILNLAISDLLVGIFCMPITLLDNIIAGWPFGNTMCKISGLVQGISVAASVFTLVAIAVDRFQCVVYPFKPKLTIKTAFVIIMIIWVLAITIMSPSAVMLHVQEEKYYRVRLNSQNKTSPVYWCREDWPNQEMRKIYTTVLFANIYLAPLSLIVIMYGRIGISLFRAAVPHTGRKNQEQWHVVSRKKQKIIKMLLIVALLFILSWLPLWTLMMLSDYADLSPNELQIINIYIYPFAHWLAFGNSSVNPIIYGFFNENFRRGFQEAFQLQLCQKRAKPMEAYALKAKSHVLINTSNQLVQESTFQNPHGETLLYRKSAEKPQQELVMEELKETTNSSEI
T1 sequence (Q9GZQ6 whole entry): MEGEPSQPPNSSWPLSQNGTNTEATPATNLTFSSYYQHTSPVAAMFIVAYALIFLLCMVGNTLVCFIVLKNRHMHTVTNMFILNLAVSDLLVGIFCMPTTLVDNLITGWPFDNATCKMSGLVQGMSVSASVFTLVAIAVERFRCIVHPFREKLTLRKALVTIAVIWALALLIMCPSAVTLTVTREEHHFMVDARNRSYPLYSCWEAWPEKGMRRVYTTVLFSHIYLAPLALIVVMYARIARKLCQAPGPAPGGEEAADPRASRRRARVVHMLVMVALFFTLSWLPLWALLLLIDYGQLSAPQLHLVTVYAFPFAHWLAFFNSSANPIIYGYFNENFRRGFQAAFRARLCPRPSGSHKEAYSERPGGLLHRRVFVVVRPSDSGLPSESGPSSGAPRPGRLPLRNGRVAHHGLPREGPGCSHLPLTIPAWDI

In general, Ki refers to the dissociation constant of the complex between target and ligand, obtained from inhibition or displacement. For the compound `O=C(N[C@@H](CCCNCc1ccccc1)C(=O)NCCc1ccccc1)c1ccccc1-c1ccccc1` [Compound 1, (2S)-5-(benzylamino)-N-(2-phenylethyl)-2-[(2-phenylphenyl)formamido]pentanamide], the inhibition constant Ki in experiment [1] was determined as 240 ± 38 nM; in experiment [2], 2300 ± 66 nM.
For `O=C(N[C@H](CCCNCc1ccccc1)C(=O)NCCc1ccccc1)c1ccccc1-c1ccccc1` [Compound 2, (2R)-5-(benzylamino)-N-(2-phenylethyl)-2-[(2-phenylphenyl)formamido]pentanamide] the same measures were 480 ± 33 nM and 910 ± 94 nM.
One may read the inhibition as the drop in the measured response relative to a control, in per cent. Lower therefore signals a response near the control. For `O=C(N[C@@H](CCCNCCc1ccccc1)C(=O)NCCc1ccccc1)c1ccccc1-c1ccccc1` [Compound 3, (2S)-N-(2-phenylethyl)-5-[(2-phenylethyl)amino]-2-[(2-phenylphenyl)formamido]pentanamide], the values for the inhibition at 0.5 µM in experiment [1] and in experiment [2] were 29 ± 2% and 15 ± 15%, respectively. The inhibition at 5 µM in experiment [1] was determined as 61 ± 1%; in experiment [2] it was 24 ± 6%.
For `CC(C)CNCCC[C@H](NC(=O)c1ccccc1-c1ccccc1)C(=O)NCCc1ccccc1` [Compound 4, (2S)-5-[(2-methylpropyl)amino]-N-(2-phenylethyl)-2-[(2-phenylphenyl)formamido]pentanamide], the values for the inhibition at 0.5 µM in experiment [1] and in experiment [2] were 14 ± 1% and 2 ± 6%, respectively. For the same compound, the inhibition at 5 µM worked out at 23% in experiment [1] and 7 ± 15% in experiment [2].
Take `CN(CCc1ccccc1)C(=O)[C@H](CCCNCc1ccccc1)NC(=O)c1ccccc1-c1ccccc1` [Compound 5, (2S)-5-(benzylamino)-N-methyl-N-(2-phenylethyl)-2-[(2-phenylphenyl)formamido]pentanamide]: the figures for the inhibition constant Ki in experiment [1] and in experiment [2] were 56 ± 11 nM and 1300 ± 590 nM, respectively.
For `O=C(N[C@@H](CCCCNCc1ccccc1)C(=O)NCCc1ccccc1)c1ccccc1-c1ccccc1` [Compound 6, (2S)-6-(benzylamino)-N-(2-phenylethyl)-2-[(2-phenylphenyl)formamido]hexanamide] the same measures were 210 ± 39 nM and 720 ± 59 nM.
As to `O=C(N[C@H](CCCCNCc1ccccc1)C(=O)NCCc1ccccc1)c1ccccc1-c1ccccc1` [Compound 7, (2R)-6-(benzylamino)-N-(2-phenylethyl)-2-[(2-phenylphenyl)formamido]hexanamide], the values for the inhibitory constant (Ki) in experiment [1] and in experiment [2] were 22 ± 4 nM and 605 ± 180 nM, respectively.
For `COc1ccccc1CNCCC[C@H](NC(=O)c1ccccc1-c1ccccc1)C(=O)NCCc1ccccc1` [Compound 8, (2S)-5-{[(2-methoxyphenyl)methyl]amino}-N-(2-phenylethyl)-2-[(2-phenylphenyl)formamido]pentanamide], in that order: 23 ± 4 nM and 103 ± 44 nM.
In experiment [1], `COc1cccc(CNCCC[C@H](NC(=O)c2ccccc2-c2ccccc2)C(=O)NCCc2ccccc2)c1` [Compound 9, (2S)-5-{[(3-methoxyphenyl)methyl]amino}-N-(2-phenylethyl)-2-[(2-phenylphenyl)formamido]pentanamide] gave an inhibition at 0.5 µM of 21 ± 4% and an inhibition at 5 µM of 60 ± 3%. In experiment [2], this compound displayed an inhibition at 0.5 µM of 9 ± 1% and an inhibition at 5 µM of 45%.
`COc1ccc(CNCCC[C@H](NC(=O)c2ccccc2-c2ccccc2)C(=O)NCCc2ccccc2)cc1` [Compound 10, (2S)-5-{[(4-methoxyphenyl)methyl]amino}-N-(2-phenylethyl)-2-[(2-phenylphenyl)formamido]pentanamide]: the Ki in experiment [1] came to 30 ± 2 nM. In experiment [2], this compound came in with an inhibition at 0.5 µM of 11 ± 20% and an inhibition at 5 µM of 40 ± 2%.
Regarding `O=C(N[C@@H](CCCNC1CCCCC1)C(=O)NCCc1ccccc1)c1ccccc1-c1ccccc1` [Compound 11, (2S)-5-(cyclohexylamino)-N-(2-phenylethyl)-2-[(2-phenylphenyl)formamido]pentanamide], the inhibition at 0.5 µM in experiment [1] stood at 49 ± 37%; in experiment [2], 8 ± 3%. The inhibition at 5 µM came out at 37 ± 1% in experiment [1] and 26 ± 8% in experiment [2].
For `O=C(N[C@@H](CCCNCc1ccccc1Cl)C(=O)NCCc1ccccc1)c1ccccc1-c1ccccc1` [Compound 12, (2S)-5-{[(2-chlorophenyl)methyl]amino}-N-(2-phenylethyl)-2-[(2-phenylphenyl)formamido]pentanamide], in experiment [1], the inhibition at 0.5 µM was found to be 32 ± 1% and the inhibition at 5 µM is 74 ± 2%. In experiment [2], this compound had an inhibition at 0.5 µM of 25 ± 5% and an inhibition at 5 µM of 64 ± 3%.
As to `O=C(N[C@@H](CCCNCc1cccc(Cl)c1)C(=O)NCCc1ccccc1)c1ccccc1-c1ccccc1` [Compound 13, (2S)-5-{[(3-chlorophenyl)methyl]amino}-N-(2-phenylethyl)-2-[(2-phenylphenyl)formamido]pentanamide], the Ki in experiment [1] was found to be 59 ± 14 nM. Moreover, in experiment [2], testing at 0.5 µM gave an inhibition of 23 ± 17% and the inhibition at 5 µM worked out at 67 ± 4%.
For `O=C(N[C@@H](CCCNCc1ccc(Cl)cc1)C(=O)NCCc1ccccc1)c1ccccc1-c1ccccc1` [Compound 14, (2S)-5-{[(4-chlorophenyl)methyl]amino}-N-(2-phenylethyl)-2-[(2-phenylphenyl)formamido]pentanamide] the same measures were 45 ± 4 nM, 16 ± 2% and 54 ± 3%.
As for `CN(CCC[C@H](NC(=O)c1ccccc1-c1ccccc1)C(=O)NCCc1ccccc1)Cc1ccccc1` [Compound 15, (2S)-5-[benzyl(methyl)amino]-N-(2-phenylethyl)-2-[(2-phenylphenyl)formamido]pentanamide], the Ki in experiment [1] was determined as 680 ± 160 nM; in experiment [2], 1100 ± 510 nM.
With `COc1ccccc1CN(C)CCC[C@H](NC(=O)c1ccccc1-c1ccccc1)C(=O)NCCc1ccccc1` [Compound 16, (2S)-5-{[(2-methoxyphenyl)methyl](methyl)amino}-N-(2-phenylethyl)-2-[(2-phenylphenyl)formamido]pentanamide], in experiment [1], testing at 0.5 µM gave an inhibition of 9 ± 4% and the inhibition at 5 µM was 50 ± 10%. In experiment [2], the inhibition at 0.5 µM amounted to 6 ± 13% and testing at 5 µM gave an inhibition of 47 ± 1%.
For the compound `COc1ccc(CN(C)CCC[C@H](NC(=O)c2ccccc2-c2ccccc2)C(=O)NCCc2ccccc2)cc1OC` [Compound 17, (2S)-5-{[(3,4-dimethoxyphenyl)methyl](methyl)amino}-N-(2-phenylethyl)-2-[(2-phenylphenyl)formamido]pentanamide], the inhibition at 0.5 µM in experiment [1] amounted to 17 ± 5%; in experiment [2] it was 18 ± 2%. Further, the inhibition at 5 µM in experiment [1] came to 65 ± 6%; in experiment [2], 48 ± 3%.
With `CN(CCC[C@H](NC(=O)c1ccccc1-c1ccccc1)C(=O)NCCc1ccccc1)Cc1cccc(Cl)c1` [Compound 18, (2S)-5-{[(3-chlorophenyl)methyl](methyl)amino}-N-(2-phenylethyl)-2-[(2-phenylphenyl)formamido]pentanamide], the inhibition at 0.5 µM was 8 ± 3% in experiment [1] and 8 ± 5% in experiment [2]. In addition, the inhibition at 5 µM in experiment [1] was 45 ± 2%; in experiment [2], 40 ± 3%.
`CN(CCC[C@H](NC(=O)c1ccccc1-c1ccccc1)C(=O)NCCc1ccccc1)Cc1ccccc1Cl` [Compound 19, (2S)-5-{[(2-chlorophenyl)methyl](methyl)amino}-N-(2-phenylethyl)-2-[(2-phenylphenyl)formamido]pentanamide]: in experiment [1], the inhibition at 0.5 µM worked out at 16 ± 5% and the inhibition at 5 µM worked out at 60 ± 2%. Moreover, in experiment [2], the inhibition at 0.5 µM came out at 0% and at 5 µM the inhibition was 39 ± 7%.
As to `CN(CCC[C@H](NC(=O)c1ccccc1-c1ccccc1)C(=O)NCCc1ccccc1)Cc1ccc(Cl)cc1` [Compound 20, (2S)-5-{[(4-chlorophenyl)methyl](methyl)amino}-N-(2-phenylethyl)-2-[(2-phenylphenyl)formamido]pentanamide], in experiment [1], the inhibition at 0.5 µM turned out to be 14 ± 7% and the inhibition at 5 µM turned out to be 51 ± 2%. In experiment [2], this compound registered an inhibition at 0.5 µM of 11 ± 3% and an inhibition at 5 µM of 39 ± 1%.
For `COc1ccc(CN(C)CCC[C@H](NC(=O)c2ccccc2-c2ccccc2)C(=O)NCCc2ccccc2)cc1` [Compound 21, (2S)-5-{[(4-methoxyphenyl)methyl](methyl)amino}-N-(2-phenylethyl)-2-[(2-phenylphenyl)formamido]pentanamide], in that order: 12 ± 10%, 58 ± 14%, 0% and 47%.
`COc1cccc(CN(C)CCC[C@H](NC(=O)c2ccccc2-c2ccccc2)C(=O)NCCc2ccccc2)c1` [Compound 22, (2S)-5-{[(3-methoxyphenyl)methyl](methyl)amino}-N-(2-phenylethyl)-2-[(2-phenylphenyl)formamido]pentanamide]: the results for the inhibition at 0.5 µM in experiment [1] and in experiment [2] were 7 ± 6% and 6%, respectively. Moreover, the inhibition at 5 µM in experiment [1] turned out to be 50 ± 2%; in experiment [2] it was 39 ± 2%.
